Assays:
[1] = target: T1, multidrug-resistance protein 2 (MRP2; ABCC2) (Homo sapiens, UniProt Q92887); assay: in vitro; assay type: biochemical
T1 construct: host or cells: membrane vesicle preparations
Description: (§1) Cells and experimental conditions for the transporter inhibition assays are summarized below in Table 7. […] M15, M20, and M23 were prepared according to the procedures described herein. All other materials were purchased by SOLVO Biotechnology and experiments were conducted according to SOLVO Standard Operating Procedures (SOPs) of its certified ISO 9001:2008 system. Lot and product information was recorded by SOLVO Biotechnology.
(§2) Test compounds and positive control was incubated with membrane vesicle preparations (total protein: 50 μg/well) and the model substrate in the absence or presence of ATP. Reaction mixtures were preincubated for 15 minutes at 37° C. Reactions were started by the addition of 25 μL of 12 mM MgATP or AMP assay buffer (for background controls) preincubated separately. Reactions were stopped after 5 min by the addition of 200 μL of ice-cold washing buffer and immediate filtration via glass fiber filters mounted to a 96-well plate (filter plate). The filters were washed, dried and the amount of substrate inside the filtered vesicles determined by liquid scintillation. A positive control inhibitor was tested in parallel. Control membranes lacking transporter expression were used as negative control. All assays were performed in duplicate.
(§3) Fractional transport activities were calculated from the following equation: Activity %=(A−B)/(C−D)×100 where A is translocated amount of substrate in the presence of TA and ATP, B is translocated amount of substrate in the presence of TA, C is translocated amount of substrate in the presence of solvent and ATP, and D is translocated amount of substrate in the presence of solvent. IC50 Determination in Transporter Assays
(§4) IC50 is defined as the test article concentration needed to inhibit the maximal transporter specific transport by 50%. IC50 values were calculated using non-linear fitting of % inhibition versus concentration to a sigmoidal curve with a variable Hill Coefficient using GraphPad Prism 5 (GraphPad Software Inc., San Diego, Calif.). If the % inhibition was less than 50% at the highest concentration tested, the IC50 was not determined. No inhibition observed (NIO) is reported for relative inhibition results <20% and no concentration dependent transport observed up to the highest concentration tested.

[2] = In vivo BIC metabolism, plasma profile after oral [14C]BIC, rat; set-up: species or system Wistar Han Rat; conditions: rats, 0 to 168 hours post dose, ND = not detected
Source text: Metabolic pathways included hydroxylation, oxidative defluorination, direct glucuronidation, and oxidation followed by phase II conjugation. In the monkey, BIC was metabolized through the oxidative pathways to a greater extent compared to rat and human.

[3] = target: T2, MRP2 (ABCC2) (Homo sapiens, UniProt Q92887); assay: in vitro; assay type: biochemical; conditions: human
T2 construct: host or cells: membrane vesicle preparations
Description: as §1, §2, §3, §4

[4] = target: T3, OATP1B3 (Homo sapiens, UniProt Q9NPD5); assay: OATP1B3 inhibition assay using Fluo-3 as probe substrate, CHO cells; assay type: cell-based; set-up: expressed in transfected cells; host or cells: CHO cells; conditions: for Maximum inhibition at highest test conc. (% of control) / inhibition at 1 h, 100 µM: OATP1B3, Fluo-3, at 100 μM; for IC50 (μM): OATP1B3, Fluo-3, NIO = no interaction observed; for inhibition at 1 h, 100 µM: human, CHO cells transfected with human OATP1B3, pH 7.4, probe Fluo-3 (2 μM), read-out: Maximum inhibition at highest test conc. (% of control)
T3 sequence (Q9NPD5 1-702): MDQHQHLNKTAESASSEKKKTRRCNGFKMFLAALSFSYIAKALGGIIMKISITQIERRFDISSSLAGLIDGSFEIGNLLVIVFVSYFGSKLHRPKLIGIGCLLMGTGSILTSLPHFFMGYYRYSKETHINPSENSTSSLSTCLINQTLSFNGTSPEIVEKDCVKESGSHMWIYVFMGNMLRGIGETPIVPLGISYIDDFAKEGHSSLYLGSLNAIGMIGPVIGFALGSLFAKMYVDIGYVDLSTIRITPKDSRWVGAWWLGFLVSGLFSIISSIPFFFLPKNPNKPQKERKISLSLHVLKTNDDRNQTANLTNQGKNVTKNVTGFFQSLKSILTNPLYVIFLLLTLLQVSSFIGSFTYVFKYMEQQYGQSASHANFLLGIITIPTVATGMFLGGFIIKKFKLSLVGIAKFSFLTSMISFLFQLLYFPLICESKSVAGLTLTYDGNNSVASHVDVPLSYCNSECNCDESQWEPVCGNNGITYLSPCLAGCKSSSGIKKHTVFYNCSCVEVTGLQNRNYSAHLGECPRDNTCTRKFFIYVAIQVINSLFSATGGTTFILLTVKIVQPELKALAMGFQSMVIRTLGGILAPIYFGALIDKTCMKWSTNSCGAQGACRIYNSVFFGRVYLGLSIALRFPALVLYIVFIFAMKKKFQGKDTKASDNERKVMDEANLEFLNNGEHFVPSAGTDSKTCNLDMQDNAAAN
Description: Chinese Hamster Ovary (CHO) cells, either wild type or transfected with the genes encoding human OATP1B1 or OATP1B3, were maintained in Dulbecco's Modification of Eagle's Medium (DMEM) containing 1,000 mg/L D-glucose, L-glutamine, 25 mM HEPES buffer, and 110 mg/L sodium pyruvate, 1% Pen/Strep, 10% fetal bovine serum, 0.05 mg/mL L-proline and 0.5 mg/mL of geneticin G-418. Cells were maintained in incubators set at 37° C., 90% humidity and 5% CO2. OATP1B1 or OATP1B3 overexpressing CHO cells were seeded in BioCoat Poly-D-Lysine coated 96 well black cell culture plates with clear bottoms at a density of 1×10^5 cells/well. Sodium butyrate (10 mM) was added to the OATP1B1 and OATP1B3 cells to increase the protein expression level, and the cells were grown to confluence overnight. The assay buffer contained 142 mM NaCl, 5 mM KCl, 1 mM KH2PO4, 1.2 mM MgSO4, 1.5 mM CaCl2, 5 mM Glucose and 12.5 mM HEPES (pH 7.4). After removal of the media and before adding test compounds, the cells were washed twice with 37° C. assay buffer followed by a 0.5 h pre-incubation with assay buffer. Test compounds were serially diluted in DMSO at 250-fold of final test concentrations to create the compound spiking solutions. Compounds were then spiked into assay buffer containing 2 μM Fluo-3 and incubated with cells for 1 h. Following removal of assay buffer containing Fluo-3 and test compound, cells were washed 3 times with 200 μl of ice cold assay buffer and then lysed at room temperature for 15 minutes in a lysis buffer containing […] in a 1 mM CaCl2 solution. Substrate accumulations were determined for Fluo-3 fluorescence at an excitation of 485 nm and emission of 530 nm.
Percent inhibition was calculated according to the following equation: % inhibition=[1−{[OATP]i−[WT]ni}/{[OATP]ni−[WT]ni}]*100 where: [OATP]i represent the substrate accumulation in the presence of test compound for either OATP1B1, OATP1B3, or OATP2B1 cells; [OATP]ni represents the substrate accumulation in the absence of test compound for either OATP1B1, OATP1B3, or OATP2B1 cells, respectively; and [WT]ni represents the substrate accumulation in the absence of test compound for wild type cells or Mock cells, respectively. IC50 Determination in Transporter Assays
IC50 was determined according to the procedures described in Example 5. […] Results are reported as NIO (no interaction observed).

T2 sequence (Q92887 whole entry): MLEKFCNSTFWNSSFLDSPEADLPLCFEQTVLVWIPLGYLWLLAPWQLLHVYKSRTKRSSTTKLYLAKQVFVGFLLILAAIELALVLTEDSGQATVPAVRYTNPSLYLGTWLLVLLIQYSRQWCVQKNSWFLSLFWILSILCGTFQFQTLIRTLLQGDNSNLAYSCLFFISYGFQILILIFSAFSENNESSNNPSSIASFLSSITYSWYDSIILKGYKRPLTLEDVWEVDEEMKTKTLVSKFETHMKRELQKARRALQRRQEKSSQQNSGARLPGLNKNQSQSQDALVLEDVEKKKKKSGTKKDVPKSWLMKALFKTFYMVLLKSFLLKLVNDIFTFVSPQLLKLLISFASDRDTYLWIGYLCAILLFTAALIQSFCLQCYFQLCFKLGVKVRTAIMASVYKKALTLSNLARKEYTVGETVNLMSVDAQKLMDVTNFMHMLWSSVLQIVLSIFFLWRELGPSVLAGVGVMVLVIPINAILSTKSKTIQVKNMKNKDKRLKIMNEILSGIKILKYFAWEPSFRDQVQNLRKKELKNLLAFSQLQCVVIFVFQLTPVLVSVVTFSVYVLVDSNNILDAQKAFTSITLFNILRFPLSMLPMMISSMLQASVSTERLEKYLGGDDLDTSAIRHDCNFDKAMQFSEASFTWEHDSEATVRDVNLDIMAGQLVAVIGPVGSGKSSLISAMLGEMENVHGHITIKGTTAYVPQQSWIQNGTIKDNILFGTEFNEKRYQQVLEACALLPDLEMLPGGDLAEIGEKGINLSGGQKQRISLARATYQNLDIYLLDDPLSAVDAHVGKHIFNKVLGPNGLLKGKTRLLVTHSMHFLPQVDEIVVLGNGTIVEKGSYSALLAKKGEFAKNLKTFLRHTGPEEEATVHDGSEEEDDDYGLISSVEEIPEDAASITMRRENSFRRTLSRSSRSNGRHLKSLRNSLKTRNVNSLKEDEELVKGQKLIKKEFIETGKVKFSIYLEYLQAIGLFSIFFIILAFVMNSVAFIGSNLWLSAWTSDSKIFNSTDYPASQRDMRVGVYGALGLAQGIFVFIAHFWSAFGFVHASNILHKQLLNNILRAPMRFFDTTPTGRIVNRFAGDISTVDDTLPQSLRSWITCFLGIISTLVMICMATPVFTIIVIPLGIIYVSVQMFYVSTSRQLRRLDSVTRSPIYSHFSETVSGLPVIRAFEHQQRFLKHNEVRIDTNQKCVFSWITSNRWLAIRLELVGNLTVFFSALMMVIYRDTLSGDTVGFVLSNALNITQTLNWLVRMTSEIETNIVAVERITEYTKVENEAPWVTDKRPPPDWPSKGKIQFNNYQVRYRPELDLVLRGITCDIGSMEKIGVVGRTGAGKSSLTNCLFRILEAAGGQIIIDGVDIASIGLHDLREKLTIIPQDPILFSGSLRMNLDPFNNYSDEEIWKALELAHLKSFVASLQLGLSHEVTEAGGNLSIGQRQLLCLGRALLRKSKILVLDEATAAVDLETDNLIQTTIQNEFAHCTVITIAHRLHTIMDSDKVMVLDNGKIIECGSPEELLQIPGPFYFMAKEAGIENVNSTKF
T1 sequence (Q92887 whole entry): as above

| SMILES | IC50 (μM) [1] | % of Total Radioactivity in AUC Pooled Plasma [2] | inhibition at 5 min, 100 µM [3] | IC50 [1] | Maximum inhibition at highest test conc. (% of control) [4] | IC50 (μM) [4] | inhibition at 1 h, 100 µM [4] | inhibition at 5 min, 300 µM [3] | Maximum inhibition at highest test conc. (% of control) ([4]; 100 µM) |
| --- | --- | --- | --- | --- | --- | --- | --- | --- | --- |
| O=C(NCc1c(F)cc(F)cc1F)c1cn2c(c(O)c1=O)C(=O)N1[C@H]3CC[C@H](C3)O[C@@H]1C2 [BIC, bictegravir, reference compound] | NIO | 76.5% | – | – | – | – | – | – | – |
| O=C(NCc1c(F)cc(F)c(O)c1F)c1cn2c(c(O)c1=O)C(=O)N1[C@H]3CC[C@H](C3)O[C@@H]1C2 [Metabolite M23] | – | 2.36% | 43% | > 100 µM | minimal to no inhibition | NIO | 20% | – | – |
| O=C(NCc1c(F)cc(F)cc1F)c1cn2c(c(O[C@@H]3O[C@H](C(=O)O)[C@@H](O)[C@H](O)[C@H]3O)c1=O)C(=O)N1[C@H]3CC[C@H](C3)O[C@@H]1C2 [Metabolite M15] | – | – | – | 256 µM | – | NIO | 0% | 53% | minimal to no inhibition |
| O=C(NCc1c(F)cc(F)c(OS(=O)(=O)O)c1F)c1cn2c(c(O)c1=O)C(=O)N1C(C2)O[C@@H]2CC[C@H]1C2 (stereo partly shown) [Metabolite M20] | – | 11.3% | – | 45 µM | minimal to no inhibition | NIO | 18% | 98% | – |

From US11253524B2 (Gilead Sciences, Inc., priority 2018, dated 2022)
